The source of these data is patent US20190225650A1, “PEPTIDOMIMETIC MACROCYCLES AND USE THEREOF IN REGULATING HIF1ALPHA” (AILERON THERAPEUTICS, INC., priority 2013, published 2019).

Bridge positions count the residues as written; N and C are the ends. Square brackets hold non-standard residues; d marks the D form. Peptide text beside a SMILES is read from it. S5 = C=CCCC[C@](C)(N)C(=O)O; Nle = CCCC[C@H](N)C(=O)O

Assay [1] addresses T1, flag-tagged HIF1α (AA 786-826) / His6-tagged p300 (AA 323-423) complex (Homo sapiens, UniProt Q09472).
T1 construct: His6-tagged p300 (AA 323-423); made in house; host or cells: E. coli (pETDuet vector)
Put plainly: HIF1α p300 displacement assay (TR FRET, +CHAPS). In kind it is binding. Conditions: read-out: IC50 (nM) (HIF1α_p300 Displacement + CHAPS). A digest of the protocol:
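In this TR-FRET displacement format, peptides compete HIF1α C-terminal transactivation domain off p300-CH. They were preincubated 1 h at room temperature with 300 nM complex in HEPES pH 7.4/NaCl buffer with 7.5 mM CHAPS and 1 mM DTT. Anti-His-D2 (4 nM) and anti-Flag-K (0.5 μM) followed for 2 h, and a one-site fit of the fluorescence ratio gave IC50.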

Assay [2] has as its system HRE-bla ME-180 cells. Put plainly: Cell proliferation assay (viability, MTT, 1% FBS). The assay is classed as cell-based, human. On the procedure: The human cervical cell line HRE-Bla ME-180 was obtained from Invitrogen. 2×10^4 ME-180 cells were plated in 96-well plates (costar) in Opti-MEM plus 1% FBS (Invitrogen). After 4 hr, cells were pretreated with chetomin, peptide or 0.5% DMSO (final concentration in media) vehicle control for 16 hr under normoxia (21% O2); then incubation continued under normoxia or hypoxia (1% O2) using a hypoxia incubator (Thermo Forma model). Viable cell numbers were quantified using CellTiter 96 Non-Radioactive Cell Proliferation kit (Promega, G4100). The results are presented in the column “Viability 1% FBS AVG (MTT V3-24 hr Normoxia) (μM)” of Table 6.

Assay [3] concerns HRE-bla ME-180 cells. Put plainly: Reporter gene assay (HRE-bla ME-180 HIF reporter, GeneBLAzer). Conditions: for EC50: 24 hour normoxia. In kind it is cell-based, human. A digest of the protocol: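 A FRET β-lactamase readout of HIF transcription was used. After compound treatment in 0.3% DMSO/media under normoxic conditions, 20 μl of 6× LiveBLAzer-FRET B/G (CCF4-AM) substrate was added. Plates sat 3 hr at room temperature in the dark and were read at 409 Ex/460Em and 409Ex/530Em on a Synergy 2. Inhibition was compared against DMSO vehicle controls, with chetomin as positive control.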
A general note: A reporter such as luciferase makes a cellular process visible.

Broadly, the IC50 is the point on the concentration scale where inhibition reaches its midpoint. What is called EC50 is the concentration at which the effect is half-maximal.

As to `CC[C@H](C)[C@H](NC(=O)[C@H](Cc1ccccc1)NC(C)=O)C(=O)N[C@@H](CC(=O)O)C(=O)N[C@@H](CCC(=O)O)C(=O)N[C@@H](CCC(=O)O)C(=O)N[C@H](C(=O)N[C@@H](CC(C)C)C(=O)N[C@@H](CCSC)C(=O)N[C@@]1(C)CCCC=CCCC[C@@](C)(C(=O)N[C@@H](CCSC)C(=O)N[C@@H](C)C(=O)N[C@@H](CC(C)C)C(N)=O)NC(=O)[C@H]([C@@H](C)CC)NC(=O)[C@H](C(C)C)NC(=O)[C@H](CC(C)C)NC1=O)C(C)C` [SP-7] (Ac-FIDEEVLM[S5]LVI[S5]MAL-NH2; staple 9-13), in assay [1], the IC50 is 400 to 700 nM. The “Viability 1% FBS AVG (MTT V3-24 hr Normoxia) (μM)” value (from here on “Viability 1% FBS AVG”) in the assay with HRE-bla ME-180 cells [2] is “++++ (≥30: ++++)”.

For the molecule `CC[C@H](C)[C@H](NC(=O)[C@H](Cc1ccccc1)NC(C)=O)C(=O)N[C@@H](CC(=O)O)C(=O)N[C@@H](CCC(=O)O)C(=O)N[C@@]1(C)CCCC=CCCC[C@@](C)(C(=O)N[C@@H](CC(C)C)C(=O)N[C@H](C(=O)N[C@H](C(=O)N[C@@H](CCC(=O)O)C(=O)N[C@@H](CCSC)C(=O)NCC(=O)N[C@@H](CC(C)C)C(=O)N[C@@H](CC(=O)O)C(=O)N[C@@H](CCCNC(=N)N)C(=O)N[C@H](C(=O)N[C@@H](CCCCN)C(=O)N[C@@H](CCC(=O)O)C(=O)N[C@@H](CC(C)C)C(=O)N2CCC[C@H]2C(=O)N[C@@H](CCC(=O)O)C(=O)N[C@@H](CC(C)C)C(=O)N[C@@H](Cc2c[nH]c3ccccc23)C(=O)N[C@@H](CC(C)C)C(N)=O)[C@@H](C)CC)[C@@H](C)CC)C(C)C)NC(=O)[C@H](CCSC)NC(=O)[C@H](CC(C)C)NC(=O)[C@H](C(C)C)NC1=O` [SP-104] (Ac-FIDE[S5]VLM[S5]LVIEMGLDRIKELPELWL-NH2; staple 5-9), in assay [1], the IC50 lay within 200 to 400 nM. In addition, the “Viability 1% FBS AVG” value in the assay with HRE-bla ME-180 cells [2] is “++++ (≥30: ++++)”. Also, in the assay with HRE-bla ME-180 cells [3], the “18 h Avg % max inhibition at top conc (HIF Rptr-24 hrs normoxia) (μM)” value (“18 h Avg % max inhibition at top conc” for short) is “++++ (≥50: ++++)” and the EC50 lay in the range of 5 to 15 µM.

Regarding `CC[C@H](C)[C@H](NC(=O)[C@H](CCCNC(=N)N)NC(=O)[C@H](CC(=O)O)NC(=O)[C@H](CC(C)C)NC(=O)[C@H](C)NC(=O)[C@H](CCSC)NC(=O)[C@H](CCC(=O)O)NC(=O)[C@@H](NC(=O)[C@@H](NC(=O)[C@H](CC(C)C)NC(=O)[C@]1(C)CCCC=CCCC[C@](C)(NC(=O)[C@H](CCC(=O)O)NC(=O)[C@H](CC(=O)O)NC(=O)[C@@H](NC(=O)[C@H](Cc2ccccc2)NC(C)=O)[C@@H](C)CC)C(=O)N[C@@H](C(C)C)C(=O)N[C@@H](CC(C)C)C(=O)N[C@@H](CCSC)C(=O)N1)C(C)C)[C@@H](C)CC)C(N)=O` [SP-108] (Ac-FIDE[S5]VLM[S5]LVIEMALDRI-NH2; staple 5-9), the IC50 in assay [1] is at most 200 nM. Besides, the “Viability 1% FBS AVG” value in the assay on HRE-bla ME-180 cells [2] is on record as “++++ (≥30: ++++)”. Besides, in the assay on HRE-bla ME-180 cells [3], the “18 h Avg % max inhibition at top conc” value is “++ (≤10 but <25: ++)” and the EC50 was over 30 µM.

For the molecule `CCCC[C@H](NC(=O)[C@H](CCC(=O)O)NC(=O)[C@@H](NC(=O)[C@@H](NC(=O)[C@H](CC(C)C)NC(=O)[C@]1(C)CCCC=CCCC[C@](C)(NC(=O)[C@H](CCC(=O)O)NC(=O)[C@H](CC(=O)O)NC(=O)[C@@H](NC(=O)[C@H](Cc2ccccc2)NC(C)=O)[C@@H](C)CC)C(=O)N[C@@H](C(C)C)C(=O)N[C@@H](CC(C)C)C(=O)N[C@@H](CCCC)C(=O)N1)C(C)C)[C@@H](C)CC)C(=O)N[C@@H](C)C(=O)N[C@@H](CC(C)C)C(=O)N[C@@H](CC(=O)O)C(=O)N[C@@H](CCCNC(=N)N)C(=O)N[C@H](C(N)=O)[C@@H](C)CC` [SP-109] (Ac-FIDE[S5]VL[Nle][S5]LVIE[Nle]ALDRI-NH2; staple 5-9), the IC50 in assay [1] lay within 200 to 400 nM. Further, the “Viability 1% FBS AVG” value in the assay on HRE-bla ME-180 cells [2] is recorded as “++ (≤5 but <15: ++)”. In the assay on HRE-bla ME-180 cells [3], the “18 h Avg % max inhibition at top conc” value is “+ (<10: +)” and the EC50 is over 30 µM.

As for `CC[C@H](C)[C@H](NC(=O)[C@H](Cc1ccccc1)NC(C)=O)C(=O)N[C@@H](CC(=O)O)C(=O)N[C@@H](CCC(=O)O)C(=O)N[C@@]1(C)CCCC=CCCC[C@@](C)(C(=O)N[C@@H](CC(C)C)C(=O)N[C@H](C(=O)N[C@H](C(=O)N[C@@H](CCC(=O)O)C(=O)N[C@@H](CCSC)C(=O)N[C@@H](C)C(=O)N[C@@H](CC(C)C)C(N)=O)[C@@H](C)CC)C(C)C)NC(=O)[C@H](CCSC)NC(=O)[C@H](CC(C)C)NC(=O)[C@H](C(C)C)NC1=O` [SP-110] (Ac-FIDE[S5]VLM[S5]LVIEMAL-NH2; staple 5-9), the IC50 in assay [1] fell in the range of 400 to 700 nM. Moreover, in the assay with HRE-bla ME-180 cells [2], the “Viability 1% FBS AVG” value is given as “++++ (≥30: ++++)”. In addition, in the assay on HRE-bla ME-180 cells [3], the “18 h Avg % max inhibition at top conc” value is “+++ (≤25 but <50: +++)” and the EC50 was over 30 µM.

Consider `CCCC[C@@H]1NC(=O)[C@H](CC(C)C)NC(=O)[C@H](C(C)C)NC(=O)[C@@](C)(NC(=O)[C@H](CCC(=O)O)NC(=O)[C@H](CC(=O)O)NC(=O)[C@@H](NC(=O)[C@H](Cc2ccccc2)NC(C)=O)[C@@H](C)CC)CCCC=CCCC[C@@](C)(C(=O)N[C@@H](CC(C)C)C(=O)N[C@H](C(=O)N[C@H](C(=O)N[C@@H](CCC(=O)O)C(=O)N[C@@H](C)C(=O)N[C@@H](C)C(=O)N[C@@H](CC(C)C)C(N)=O)[C@@H](C)CC)C(C)C)NC1=O` [SP-145] (Ac-FIDE[S5]VL[Nle][S5]LVIEAAL-NH2; staple 5-9), for which the IC50 in assay [1] is 200 to 400 nM. In the assay on HRE-bla ME-180 cells [2], the “Viability 1% FBS AVG” value was “++++ (≥30: ++++)”.

In the case of `CC[C@H](C)[C@H](NC(=O)[C@H](CCCNC(=N)N)NC(=O)[C@H](CC(=O)O)NC(=O)[C@H](CC(C)C)NC(=O)[C@H](C)NC(=O)[C@H](CCSC)NC(=O)[C@]1(C)CCCC=CCCC[C@](C)(NC(=O)[C@H](CCSC)NC(=O)[C@H](CC(C)C)NC(=O)[C@@H](NC(=O)[C@H](C)NC(=O)[C@H](CCC(=O)O)NC(=O)[C@H](CC(=O)O)NC(=O)[C@@H](NC(=O)[C@H](Cc2ccccc2)NC(C)=O)[C@@H](C)CC)C(C)C)C(=O)N[C@@H](CC(C)C)C(=O)N[C@@H](C(C)C)C(=O)N[C@@H]([C@@H](C)CC)C(=O)N1)C(N)=O` [SP-266] (Ac-FIDEAVLM[S5]LVI[S5]MALDRI-NH2; staple 9-13), the IC50 in assay [1] was 200 to 400 nM. Besides, the “Viability 1% FBS AVG” value in the assay with HRE-bla ME-180 cells [2] was “++++ (≥30: ++++)”.

Turning to `CCCC[C@H](NC(=O)[C@H](CCC(=O)O)NC(=O)[C@@H](NC(=O)[C@@H](NC(=O)[C@H](CC(C)C)NC(=O)[C@]1(C)CCCC=CCCC[C@](C)(NC(=O)[C@H](CCC(=O)O)NC(=O)[C@H](CC(=O)O)NC(=O)[C@@H](NC(=O)[C@H](CC(N)=O)NC(=O)[C@@H](NC(=O)[C@H](CCC(N)=O)NC(=O)[C@H](CC(=O)O)NC(=O)[C@H](CC(C)C)NC(=O)[C@]2(C)CCCC=CCCC[C@](C)(NC(=O)[C@H](CCC(=O)O)NC(=O)CNC(=O)[C@H](CCC(N)=O)NC(=O)[C@H](CC(C)C)NC(=O)[C@H](CC(C)C)NC(C)=O)C(=O)N[C@@H](CC(C)C)C(=O)N[C@@H](CC(C)C)C(=O)N[C@@H](CCCNC(=N)N)C(=O)N2)C(C)C)[C@@H](C)CC)C(=O)N[C@@H](C(C)C)C(=O)N[C@@H](CC(C)C)C(=O)N[C@@H](CCCC)C(=O)N1)C(C)C)[C@@H](C)CC)C(=O)NCC(N)=O` [SP-326] (Ac-LLQGE[S5]LLR[S5]LDQVNIDE[S5]VL[Nle][S5]LVIE[Nle]G-NH2; staple 6-10, 19-23), the IC50 in assay [1] is over 700 nM. The “Viability 1% FBS AVG” value in the assay on HRE-bla ME-180 cells [2] is on record as “++++ (≥30: ++++)”.
